Measurements as given in PMC3263372 (Chembiochem, 2011).
Entries after “also recorded” stand apart in the source; their conditions may differ. Square brackets hold non-standard residues; d marks the D form. Peptide text beside a SMILES is read from it. β3hW = N[C@H](CC(=O)O)Cc1c[nH]c2ccccc12; β3hR = N=C(N)NCCC[C@H](N)CC(=O)O; β3hE = N[C@@H](CCC(=O)O)CC(=O)O; β3hQ = NC(=O)CC[C@H](N)CC(=O)O; β3hD = NC(CC(=O)O)CC(=O)O; β3hA = C[C@H](N)CC(=O)O

Tests used:
Bcl-2 = Bcl-2 (Homo sapiens, UniProt P10415); assay: Solution competition SPR; format: binding
Sequence of Bcl-2 (P10415 1-217 limits assumed, species assumed): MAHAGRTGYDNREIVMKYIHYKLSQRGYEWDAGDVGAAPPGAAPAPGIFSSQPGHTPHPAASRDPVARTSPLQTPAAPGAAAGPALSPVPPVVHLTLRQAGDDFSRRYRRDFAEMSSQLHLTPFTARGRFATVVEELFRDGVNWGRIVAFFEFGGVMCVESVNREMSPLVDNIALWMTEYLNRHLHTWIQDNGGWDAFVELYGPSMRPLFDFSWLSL

Mcl-1 = Mcl-1 (Homo sapiens, UniProt Q07820, A193S/E173D/K208R/M199L/R201E/S202A/S206G/T196S/T205A); assay: Solution competition SPR; format: binding, human/mouse chimeric; settings: for affinity for Mcl-1: SPR, in words
Sequence of Mcl-1 (Q07820 171-327 E173D/A193S/T196S/M199L/R201E/S202A/T205A/S206G/K208R limits assumed): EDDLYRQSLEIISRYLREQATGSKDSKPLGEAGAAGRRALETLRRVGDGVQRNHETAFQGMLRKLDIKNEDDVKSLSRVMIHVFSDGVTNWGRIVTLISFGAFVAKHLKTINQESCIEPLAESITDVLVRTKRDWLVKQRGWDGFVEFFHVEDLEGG

Bcl-w = molecular target: T1, Bcl-w (Homo sapiens, UniProt Q92843, A128E/C29S); assay: Solution competition SPR; format: binding
T1 sequence (Q92843 1-164 C29S/A128E limits assumed): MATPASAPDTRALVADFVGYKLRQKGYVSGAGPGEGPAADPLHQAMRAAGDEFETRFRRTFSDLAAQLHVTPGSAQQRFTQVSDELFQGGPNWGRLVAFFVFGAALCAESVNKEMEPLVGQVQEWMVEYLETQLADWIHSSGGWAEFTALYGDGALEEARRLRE

pro-survival proteins = settings: ref [37]; cited from earlier work
Bcl-xL [1] = molecular target: T2, Bcl-xL (Homo sapiens, UniProt Q07817); assay: Solution competition SPR; format: binding; settings: for affinity for Bcl-xL: SPR, in words
T2 sequence (Q07817 1-209 limits assumed): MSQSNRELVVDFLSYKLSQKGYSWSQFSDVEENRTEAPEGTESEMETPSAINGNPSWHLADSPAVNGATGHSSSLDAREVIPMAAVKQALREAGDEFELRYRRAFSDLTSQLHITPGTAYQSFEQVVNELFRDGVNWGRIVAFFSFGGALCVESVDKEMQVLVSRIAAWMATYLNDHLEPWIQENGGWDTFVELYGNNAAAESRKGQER

Bcl-xL [2] = molecular target: T2, Bcl-xL; settings: preliminary studies; ref [14]; cited from earlier work
[3] = ref [14]; cited from earlier work

| Structure (SMILES) | IC50 (Bcl-2) | IC50 (Mcl-1) | IC50 (Bcl-w) | binding to all pro-survival proteins (pro-survival proteins) | IC50 (Bcl-xL [1]) | binding to Bcl-xL (Bcl-xL [2]) | affinity for Mcl-1 (Mcl-1) | affinity for Bcl-xL (Bcl-xL [1]) | resistance to proteolytic degradation [3] |
| --- | --- | --- | --- | --- | --- | --- | --- | --- | --- |
| CC[C@H](C)[C@H](NC(=O)[C@H](CCC(=O)O)NC(=O)[C@H](CCCNC(=N)N)NC(=O)[C@H](C)NC(=O)[C@H](Cc1c[nH]c2ccccc12)NC(=O)[C@H](CCC(N)=O)NC(=O)[C@H](CCC(=O)O)NC(=O)[C@H](CCC(=O)O)NC(C)=O)C(=O)NCC(=O)N[C@@H](C)C(=O)N[C@@H](CCC(N)=O)C(=O)N[C@@H](CC(C)C)C(=O)N[C@@H](CCCNC(=N)N)C(=O)N[C@@H](CCCNC(=N)N)C(=O)N[C@@H](CCSC)C(=O)N[C@@H](C)C(=O)N[C@@H](CC(=O)O)C(=O)N[C@@H](CC(=O)O)C(=O)N[C@@H](CC(C)C)C(=O)N[C@@H](CC(N)=O)C(=O)N[C@@H](C)C(=O)N[C@@H](CCC(N)=O)C(=O)N[C@@H](Cc1ccc(O)cc1)C(=O)N[C@@H](CCC(=O)O)C(=O)N[C@@H](CCCNC(=N)N)C(=O)N[C@@H](CCCNC(=N)N)C(N)=O [α-peptide 1] | 0.005 µM | 0.01 µM | 0.013 µM | promiscuous binder capable of engaging all pro-survival proteins with high affinity | 0.018 µM | – | – | – | – |
| CC[C@H](C)[C@H](NC(=O)C[C@H](CCC(=O)O)NC(=O)[C@H](CCCNC(=N)N)NC(=O)[C@H](C)NC(=O)C[C@H](Cc1c[nH]c2ccccc12)NC(=O)[C@H](CCC(N)=O)NC(=O)[C@H](CCC(=O)O)NC(=O)[C@H](CCC(=O)O)NC(C)=O)C(=O)NCC(=O)N[C@@H](C)C(=O)N[C@@H](CCC(N)=O)CC(=O)N[C@@H](CC(C)C)C(=O)N[C@@H](CCCNC(=N)N)C(=O)N[C@@H](CCCNC(=N)N)CC(=O)N[C@@H](CCSC)C(=O)N[C@@H](C)C(=O)N[C@@H](CC(=O)O)C(=O)N[C@@H](CC(=O)O)CC(=O)N[C@@H](CC(C)C)C(=O)N[C@@H](CC(N)=O)C(=O)N[C@@H](C)CC(=O)N[C@@H](CCC(N)=O)C(=O)N[C@@H](Cc1ccc(O)cc1)C(=O)N[C@@H](CCC(=O)O)C(=O)N[C@@H](CCCNC(=N)N)CC(=O)N[C@@H](CCCNC(=N)N)C(N)=O [α/β-peptide 2] | – | – | – | – | – | bound tightly | does not bind tightly to Mcl-1; also recorded: low affinity; also recorded: relatively weak binding | strong binding; also recorded: high affinity | significant resistance to proteolytic degradation |
| CC[C@H](C)[C@H](NC(=O)C[C@H](CCC(=O)O)NC(=O)[C@H](CCCNC(=N)N)NC(=O)[C@H](C)NC(=O)C[C@H](Cc1c[nH]c2ccccc12)NC(C)=O)C(=O)NCC(=O)N[C@@H](C)C(=O)N[C@@H](CCC(N)=O)CC(=O)N[C@@H](CC(C)C)C(=O)N[C@@H](CCCNC(=N)N)C(=O)N[C@@H](CCCNC(=N)N)CC(=O)N[C@@H](CCSC)C(=O)N[C@@H](C)C(=O)N[C@@H](CC(=O)O)C(=O)N[C@@H](CC(=O)O)CC(=O)N[C@@H](CC(C)C)C(=O)N[C@@H](CC(N)=O)C(=O)N[C@@H](C)CC(=O)N[C@@H](CCC(N)=O)C(=O)N[C@@H](Cc1ccc(O)cc1)C(=O)N[C@@H](CCC(=O)O)C(N)=O [α/β-peptide 3] (Ac-[β3hW]AR[β3hE]IGA[β3hQ]LR[β3hR]MAD[β3hD]LN[β3hA]QYE-NH2; N-terminus assumed) | – | – | – | – | – | – | low affinity | high affinity | – |
